The target of assay [1] is T1, recombinant human FLAP protein (Homo sapiens, UniProt P20292).
T1 construct: made in house; host or cells: Sf9 insect cells (100,000×g membrane pellet used)
T1 sequence (P20292 1-161): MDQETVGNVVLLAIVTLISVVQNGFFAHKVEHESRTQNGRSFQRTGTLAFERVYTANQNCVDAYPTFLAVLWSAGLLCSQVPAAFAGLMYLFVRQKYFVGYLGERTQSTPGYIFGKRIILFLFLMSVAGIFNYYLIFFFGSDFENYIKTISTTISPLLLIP
Briefly: FLAP binding assay (SPA, displacement of [125I]L-691,831). Particulars: membranes of sf9 cells expressing recombinant human FLAP; [125I]L-691,831 probe; read-out: FLAP binding IC50. A digest of the protocol:
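Membranes from sf9 cells expressing human FLAP in pH 7.5 Tris buffer (MgCl2, EDTA, PMSF). Non-specific binding defined with 10 μM cold L-691,831.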
A general note: Displacement assays read how much labelled ligand stays bound in the presence of the test substance.

Assay [2] has as its system synthesis of LTB4 in human whole blood. Put plainly: Human whole blood assay (inhibition of LTB4 synthesis, calcimycin stimulated). Particulars: heparinized human whole blood, calcimycin 20 μM, plasma LTB4. Type of assay: cell-based. A digest of the protocol:
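LTB4 in plasma was quantified by HTRF immunoassay. Before that, compound-treated heparinized whole blood (15 min, 37 °C) received 20 μM final calcimycin for a further 30 min at 37 °C, followed by centrifugation at 1500×g.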

Where only a bound is given, the exact number is not on record here.

For orientation: IC50 means the midpoint of a concentration-inhibition curve. As for `CC(C)Nc1ncc(-c2ccc([C@](C)(c3noc(-c4cnn(CC(=O)N(C)C)c4)n3)C3CC3)cc2)cn1` [Example 279, 2-[4-(3-{(R)-1-Cyclopropyl-1-[4-(2-isopropylamino-pyrimidin-5-yl)-phenyl]-ethyl}-[1,2,4]oxadiazol-5-yl)-pyrazol-1-yl]-N,N-dimethyl-acetamide], the concentration for half-maximal inhibition (IC50) was 76 nM in assay [1] and > 5000 nM in assay [2].

`C[C@@](c1ccc(-c2cnc(N)cn2)cc1)(c1noc(-c2cnn(C3COC3)c2)n1)C1CC1` [Example 265, 5-(4-{(R)-1-Cyclopropyl-1-[5-(1-oxetan-3-yl-1H-pyrazol-4-yl)-[1,2,4]oxadiazol-3-yl]-ethyl}-phenyl)-pyrazin-2-ylamine; compound with trifluoro-acetic acid]: the figures for the IC50 in assay [1] and in assay [2] were 5.1 nM and 22 nM, respectively.

With `CC(c1ccc(-c2ccc(N)nc2)cc1)(c1noc(N2CCC(O)CC2)n1)C1CC1` (stereo not drawn) [Example 248, 1-(3-{1-[4-(6-Amino-pyridin-3-yl)-phenyl]-1-cyclopropyl-ethyl}-[1,2,4]oxadiazol-5-yl)-piperidin-4-ol], the half-maximal inhibitory concentration (IC50) in assay [1] is 10 nM; in assay [2], 80 nM.

With `CC(C)C(C)(c1ccc(-c2cnc(N)nc2)cc1)c1noc(N2CCC(C(N)=O)CC2)n1` (stereo not drawn) [Example 213, 1-(3-{1-[4-(2-Amino-pyrimidin-5-yl)-phenyl]-1,2-dimethyl-propyl}-[1,2,4]oxadiazol-5-yl)-piperidine-4-carboxylic acid amide], the IC50 came to 14 nM in assay [1] and 330 nM in assay [2].

On to `COCCNc1cnc(-c2nc([C@@](C)(c3ccc(-c4cnc(N)nc4)cc3)C(C)C)no2)cn1` [Example 123, 5-{4-[(2R)-2-(5-{5-[(2-methoxyethyl)amino]pyrazin-2-yl}-1,2,4-oxadiazol-3-yl)-3-methylbutan-2-yl]phenyl}pyrimidin-2-amine], for which the IC50 in assay [1] stood at 1.7 nM; in assay [2] it was 42 nM.

For the compound `CC(C)C(C)(c1ccc(-c2cnc(N)nc2)cc1)c1noc(CCC(C)(C)C(=O)O)n1` (stereo not drawn) [Example 85, 4-(3-{2-[4-(2-aminopyrimidin-5-yl)phenyl]-3-methylbutan-2-yl}-1,2,4-oxadiazol-5-yl)-2,2-dimethylbutanoic acid], the half-maximal inhibitory concentration (IC50) in assay [1] was 48 nM; in assay [2], > 5000 nM.

For the compound `CN(C)C(=O)Cn1cc(-c2nc(C(C)(c3ccc(-c4cnc(N)c(F)c4)cc3)C3CC3)no2)cn1` (stereo not drawn) [Example 243, 2-[4-(3-{1-[4-(6-Amino-5-fluoro-pyridin-3-yl)-phenyl]-1-cyclopropyl-ethyl}-[1 ,2,4]oxadiazol-5-yl)-pyrazol-1-yl]-N,N-dimethyl-acetamide], the 50% inhibitory concentration (IC50) in assay [1] turned out to be 12 nM; in assay [2], 170 nM.

For the compound `CC(C)C(C)(c1ccc(-c2cnc(N)nc2)cc1)c1noc(CC(C)(C)C(=O)O)n1` (stereo not drawn) [Example 93, 3-(3-{2-[4-(2-aminopyrimidin-5-yl)phenyl]-3-methylbutan-2-yl}-1,2,4-oxadiazol-5-yl)-2,2-dimethylpropanoic acid], the figures for the IC50 in assay [1] and in assay [2] were 240 nM and > 5000 nM, respectively.

Turning to `CC(C)C(C)(c1ccc(-c2cnc(N)nc2)cc1)c1noc(N2CC(C)(O)C2)n1` (stereo not drawn) [Example 203, 1-(3-{1-[4-(2-Amino-pyrimidin-5-yl)-phenyl]-1,2-dimethyl-propyl}-[1,2,4]oxadiazol-5-yl)-3-methyl-azetidin-3-ol], the IC50 was 15 nM in assay [1] and 130 nM in assay [2].

With `Cn1cc(-c2nc(C(C)(c3ccc(-c4cnc(N)nc4)cc3)C3CC3)no2)cn1` (stereo not drawn) [Example 22, 5-(4-{1-cyclopropyl-1-[5-(1-methyl-1H-pyrazol-4-yl)-1,2,4-oxadiazol-3-yl]ethyl}phenyl)pyrimidin-2-amine], the IC50 amounted to 4.2 nM in assay [1] and 46 nM in assay [2].

As to `COCCn1cc(-c2nc([C@@](C)(c3ccc(-c4cnc(N)nc4)cc3)C3CC3)no2)cn1` [Example 52, 5-{4-[(1R)-1-cyclopropyl-1-{5-[1-(2-methoxyethyl)-1H-pyrazol-4-yl]-1,2,4-oxadiazol-3-yl}ethyl]phenyl}pyrimidin-2-amine], the values for the IC50 in assay [1] and in assay [2] were 2.4 nM and 26 nM, respectively.

For `CC(C)[C@](C)(c1ccc(-c2cnc(N)nc2)cc1)c1noc(-c2ccn[nH]2)n1` [Example 23, 5-(4-{(2R)-3-methyl-2-[5-(1H-pyrazol-5-yl)-1,2,4-oxadiazol-3-yl]butan-2-yl}phenyl)pyrimidin-2-amine], the values for the concentration for half-maximal inhibition (IC50) in assay [1] and in assay [2] were 6.9 nM and 170 nM, respectively.

With `CN(c1nc(C(C)(c2ccc(-c3cnc(N)nc3)cc2)C2CC2)no1)C1CCC(O)CC1` (stereo not drawn) [Example 297, 4-[(3-{1-[4-(2-Amino-pyrimidin-5-yl)-phenyl]-1-cyclopropyl-ethyl}-[1,2,4]oxadiazol-5-yl)-methyl-amino]-cyclohexanol], the IC50 in assay [1] was determined as 8.5 nM; in assay [2], 79 nM.

Consider `Cn1cc(-c2nc([C@@](C)(c3ccc(-c4ccc(N)nc4)cc3)C3CC3)no2)cn1` [Example 181, 5-(4-{(R)-1-Cyclopropyl-1-[5-(1-methyl-1H-pyrazol-4-yl)-[1,2,4]oxadiazol-3-yl]-ethyl}-phenyl)-pyridin-2-ylamine], for which the IC50 in assay [1] is 3.3 nM; in assay [2] it was 51 nM.

Take `CC(c1ccc(-c2cnc(N)nc2)cc1)(c1noc(-c2cn[nH]c2)n1)C1CCC1` (stereo not drawn) [Example 34, 5-(4-{1-cyclobutyl-1-[5-(1H-pyrazol-4-yl)-1,2,4-oxadiazol-3-yl]ethyl}phenyl)pyrimidin-2-amine]: the figures for the half-inhibitory concentration (IC50) in assay [1] and in assay [2] were 3.7 nM and 160 nM, respectively.

`Cc1ccc(-c2nc(C(C)(C)c3ccc(-c4cnc(N)nc4)cc3)no2)cn1` [Example 37, 5-(4-{2-[5-(6-methylpyridin-3-yl)-1,2,4-oxadiazol-3-yl]propan-2-yl}phenyl)pyrimidin-2-amine]: the IC50 stood at 7.4 nM in assay [1] and 250 nM in assay [2].

As to `COc1cncc(-c2nc(C(C)(c3ccc(-c4cnc(N)nc4)cc3)C(C)C)no2)c1` (stereo not drawn) [Example 13, 5-(4-{2-[5-(5-methoxypyridin-3-yl)-1,2,4-oxadiazol-3-yl]-3-methylbutan-2-yl}phenyl)pyrimidin-2-amine], the values for the IC50 in assay [1] and in assay [2] were 3.6 nM and 460 nM, respectively.

With `CC(C)(CO)Nc1cnc(-c2nc([C@@](C)(c3ccc(-c4cnc(N)nc4)cc3)C3CC3)no2)cn1` (single isomer, unassigned) [Example 56], the IC50 in assay [1] came to 2.4 nM; in assay [2], 79 nM.

`CC(C)C(C)(c1ccc(-c2cnc(N)nc2)cc1)c1noc(-c2ccc(N)nc2)n1` (stereo not drawn) [Example 151, 5-(4-{2-[5-(6-aminopyridin-3-yl)-1,2,4-oxadiazol-3-yl]-3-methylbutan-2-yl}phenyl)pyrimidin-2-amine]: the values for the half-inhibitory concentration (IC50) in assay [1] and in assay [2] were 2.3 nM and 100 nM, respectively.

With `CN(C)C(=O)Cn1cc(-c2nc([C@@](C)(c3ccc(-c4cnc(N)cn4)cc3)C3CC3)no2)cn1` [Example 176, 2-[4-(3-{(R)-1-[4-(5-Amino-pyrazin-2-yl)-phenyl]-1-cyclopropyl-ethyl}-[1,2,4]oxadiazol-5-yl)pyrazol-1-yl]-N,N-dimethyl-acetamide], the half-inhibitory concentration (IC50) is 1.2 nM in assay [1] and 73 nM in assay [2].

On to `CC(C)C(C)(c1ccc(-c2cnc(N)nc2)cc1)c1noc(-c2ccnn2C)n1` (stereo not drawn) [Example 18, 5-(4-{3-methyl-2-[5-(1-methyl-1H-pyrazol-5-yl)-1,2,4-oxadiazol-3-yl]butan-2-yl}phenyl)pyrimidin-2-amine], for which the IC50 in assay [1] was 3.3 nM; in assay [2], 320 nM.
